In a melting point compilation (Tetko et al.; mined from patent text by program, amines drawn as free bases though some values may be those of a salt):

Row | Compound | melting point [°C]
1 | O=C(CSc1ncc(-c2ccccc2)cn1)NC1CCN(Cc2ccc(Cl)c(Cl)c2)CC1 | 157
2 | CCCC(=O)CN1CCC(CCN2CCN(c3cccc(C)c3C)CC2)CC1 | 47
3 | O=C(O)[C@@H]1Cc2ccccc2N1c1ccc(Cl)nn1 | 211 to 212
4 | O=C(O)CCCNC(=O)c1cc(Cl)ccc1O | 136 to 140
5 | CC(=O)N1CCc2ccc(Cl)c(S(=O)(=O)Cl)c2C1 | 121 to 125
6 | CC(=O)c1ccc(N2CCN(CCC(=O)O)CC2)cc1 | 204 to 206
7 | CC(C)(C)Nc1c([N+](=O)[O-])cnc2ccccc12 | 106 to 108
8 | CC(c1ccccc1Cl)n1cnc2cnc3ccccc3c21 (stereo unspecified) | 156 to 158
9 | CCN1c2ncc(CCc3cccnc3)cc2C(=O)N(C)c2cccnc21 | 79 to 80
10 | CC(C)C(=O)c1cn(-c2c(Cl)cc(C(F)(F)F)cc2Cl)nc1C#N | 168 to 169
11 | CCOP1(=O)OCc2ccccc21 (stereo unspecified) | 60
12 | Cc1ccc(C[C@H]2NC(=O)O[C@H]2c2ccc(F)cc2)cc1OC(F)(F)C(F)F (racemic) | 112 to 113
13 | O=C(CN1CCCCC1=O)N1CCC(C2c3ncc(Br)cc3CCc3cc(Cl)cc(Br)c32)CC1 (single isomer, unassigned; (+)) | 138 to 139
14 | CCCc1ncc(CN2CC=C(c3ccc(F)cc3)CC2)c(N)n1 | 142 to 145
15 | O=c1ccc2c(-c3cccc(O)c3)nccc2[nH]1 | 297 to 299
16 | O=C1Nc2ccccc2C(=O)C1=O | > 250
17 | N#Cc1cn(-c2ccc([N+](=O)[O-])cc2)nc1[N+](=O)[O-] | 172 to 175
18 | Nc1ccc(-n2ncnc2-c2ccccc2)cc1 | 161 to 163
19 | O=C(O)Cc1ccc(OCCc2ccccc2)c(OCc2ccccc2)c1 | 116 to 119
20 | CCCC(=O)Nc1cscn1 | 63 to 66
21 | O=C1c2cccc3c(Cl)ccc(c23)C(=O)N1O | 234 to 236
22 | CCCCCCc1ccc(OCCCCCC(=O)Nc2ccc(O)cc2)cc1O | 128

Row | Compound | melting point [°C]
23 | CC(C)(COc1ccc(CC2SC(=O)NC2=O)cc1)c1ccccc1 (stereo unspecified) | 107 to 108
24 | Cc1c(C(=O)Nc2ccc(SCCCO)c(C#N)c2)cnn1-c1ccc(Cl)cc1 | 165
25 | CC(C)[C@H](NC(=O)OCc1cccnc1)C(=O)N[C@@H](Cc1ccccc1)[C@@H](O)[C@@H](O)[C@H](Cc1ccccc1)NC(=O)OC(C)(C)C | 175 to 178
26 | CC(NC(=O)CNC(=O)c1c(Cl)cccc1Cl)c1ccccc1 (stereo unspecified) | 155
27 | Cc1cc(C2=C(Cl)CCN(C(=O)c3ccccc3)C2)no1 | 86 to 87
28 | CSc1cnc2c(c1)CCC(c1ccc(Cl)c(Cl)c1)O2 (stereo unspecified) | 109 to 111
29 | CCCOCCc1ccc(-c2ccc3c(c2)C=C(C(=O)Nc2ccc(CN(C)C4CCOCC4)cc2)CCS3(=O)=O)c(F)c1 | 172 to 174
30 | Cc1cccc(C)c1N1CC(=O)N(c2c(C)cccc2C)CC1=O | 233 to 235
31 | CC(C)(C)OC(=O)N[C@H]1CC[C@H](CN2CCN(c3cccc4c3CCC4)CC2)CC1 | 131 to 134
32 | O=[N+]([O-])c1ccc(SCCc2c[nH]cn2)nc1 | 147 to 148
33 | COn1c(C(F)(F)F)nc2ncc(Cl)cc21 | 91 to 92
34 | O=C1N(N(c2ccccc2)c2ccccc2)c2ccccc2C1(Cc1ccncc1)Cc1ccncc1 | 184 to 186
35 | CC(c1ccccc1)C(C(=O)c1ccc(Cl)cc1)n1cncn1 (stereo unspecified) | 163 to 165
36 | COc1ccc(CCN2CCC(N3Cc4cc(Cl)c(S(N)(=O)=O)cc4C3=O)CC2)cc1 | 125 to 135
37 | CC(=O)OCC1OC(n2cnc3c(-n4cnc(-c5ccccc5)c4-c4ccccc4)nc(Cl)nc32)C(OC(C)=O)C1OC(C)=O (stereo unspecified) | 146
38 | CC(=O)OC(C)(N=NC(C)(OC(C)=O)C(C)C)C(C)C (stereo unspecified) | 55 to 62
39 | O=S(=O)(c1ccc(O)cc1)c1ccc(O)c2ccccc12 | 198 to 199
40 | COC(=O)[C@H](CC(C)C)NC(=O)CCC(=O)Nc1ccc(Nc2ccccc2)cc1 | 134 to 135
41 | Cc1cc(Cn2c(O)nc3c(N)nc(C)c(C)c32)on1 | > 300
42 | COc1nc2cc(Cl)c(Cl)cc2nc1N1CCN(C)CC1 | 92.6 to 99
43 | O=C(O)c1cc2c(s1)CCc1ccccc1-2 | 205 to 208
44 | Cc1nc(C(=O)NS(=O)(=O)c2c(C)csc2C(=O)OC(C)C)no1 | 142

Row | Compound | melting point [°C]
45 | Cn1nc(C(F)(F)F)c(C(=O)O)c1F | 165 to 166
46 | CCC1(COc2ccc(C(=O)O)cc2)COC1 | 128
47 | CC(N)(C(=O)O)c1ccc(NC=C2C(=O)NC(=O)c3ccc(Br)cc32)cc1 (stereo unspecified) | 250 to 253
48 | O=C(CN1CCN(C(c2ccccc2)c2ccccc2)CC1)Nc1ccc2ncnn2n1 | 203 to 204
49 | Nc1nc(-c2cc(Cl)ccc2Cl)nc(N2CCCC(O)C2)n1 (stereo unspecified) | 178 to 180
50 | COc1nc(N)nc2c1CCO2 | 172 to 177
51 | CCOC(=NC(=O)c1ccncc1)N1Cc2ccccc2-c2ccccc2C1 | 120 to 122
52 | Nc1ccc(N2CCOC2=O)c(Cl)c1 | 151 to 153
53 | Cc1ccc(C(NC(c2ccccc2)c2ccccc2)P(O)O)cc1 (stereo unspecified) | 208 to 209
54 | O=C(O)c1ccc(NC(=O)C(CC2CCCC2)c2cccc(Cl)c2)nc1 (stereo unspecified) | 251 to 255
55 | COc1cccc(C2CCC(=O)N2)c1 (stereo unspecified) | 84 to 85
56 | CCn1ncc2c1ncc1c(SC)nc3ncnn3c12 | 198 to 200
57 | N#CCCN(CCC#N)CCN(CCC#N)CCC#N | 63 to 65
58 | CC(C)Nc1nc2c(F)c(F)c(Cl)cc2[nH]1 | 175 to 178
59 | Cc1nc(-c2ccccc2)nc(-c2ccncc2)c1C | 152 to 153
60 | O=C(O)c1cc(S(=O)CC(=O)c2ccccc2)cc(C(F)(F)F)c1 (stereo unspecified) | 148 to 151
61 | O=C(Nc1ccc(C(F)(F)F)cc1)N1CC2CCc3cc(Cl)ccc3C2=N1 (stereo unspecified) | 196 to 199
62 | NC(=O)c1c(N)n[nH]c1N1CCN(Cc2ccccc2)CC1 | 234 to 236
63 | CC1Oc2ccc(CN3CCN(c4ccc(C#N)cc4)CC3)cc2NC1=O (stereo unspecified) | 266 to 268
64 | OCCc1noc(Cc2ccc(-c3ccccc3)cc2)n1 | 94 to 95
65 | CCOC(=O)CN(C(=O)C(F)(F)F)C(Sc1ccccc1)P(=O)(O)ONC(C)C (stereo unspecified) | 102 to 103

Second part, the compound after the results:

Row | melting point [°C] | Compound
66 | 81 to 82 | CCCCOc1ccc(CCCOc2nn(CC)cc2CC(=O)O)c(Oc2ccc(C(F)(F)F)cn2)c1
67 | 188 to 189 | CCOC(=O)c1cccc2nc(CC)n(Cc3ccc(-c4ccccc4-c4nnn[nH]4)cc3)c12
68 | 164 to 166 | COC(=O)C1=C(C)NC(C)=C(C(=O)OC)C1c1ccccc1-c1ccsc1
69 | 145 to 147 | COc1ccccc1Oc1cccc2c1NC(=O)C2
70 | 124 to 127 | CCc1nn(C2CCCCC2)c2cc(C(=O)Nc3c(Cl)cncc3Cl)ccc12
71 | 80 | COc1ccc2[nH]cc(CCC(=O)O)c2c1
72 | 147 to 148 | CCOC(=O)c1c(CCl)nc2cc(OC)c(OC)cc2c1-c1ccc(OC)c(OC)c1
73 | 215 to 217 | COc1cc2ccc(-c3ccccc3N)cc2cc1OC
74 | 198 to 200 | COc1ccc(C(=O)O)c(COc2ccc(CC(=O)O)cc2)c1
75 | 143 | O=C(C=CCN1CCOCC1)Nc1cc2c(Nc3ccc(F)c(Cl)c3)ncnc2cc1OC1CCCC1
76 | 150 to 151 | COc1ccccc1C(=O)c1sc(NCCc2ccc(Cl)cc2)nc1N
77 | 105 to 106 | Cc1nc2c3c(ccn2c1C)[C@@H](OCCS(C)=O)[C@H](O)[C@@H](c1ccccc1)N3 (stereo partly specified)
78 | 214 to 216 | CC1(C)OC(=O)Nc2ccc(-c3cc(Br)cc(OC(F)(F)F)c3)cc21
79 | 162 to 164 | CCOc1c(C(=O)O)sc2ccc(OC)cc12
80 | 149 | COC[C@](C#N)(C(=O)N1CCN(c2cnccn2)CC1)[C@H](c1ccccc1OC)c1cccc2ccccc12
81 | 138 to 140 | Cc1ccc(S(=O)(=O)n2ccc3c(-c4c(C)nc5ccc(Cl)nn45)ccnc32)cc1
82 | 79 to 80 | CCOC(=O)NCn1cccc1C(=O)c1ccc(Cl)cc1Cl
83 | 139 to 142 | N#Cc1ccc(Cn2cncn2)c(-c2ccc(OS(N)(=O)=O)c(Cl)c2)c1

Row | melting point [°C] | Compound
84 | 134 | COc1cc(N)c(Cl)cc1C(=O)N[C@H]1CCN(CCNc2ncccc2C#N)C[C@H]1OC (relative stereo)
85 | 242 | C#CCOc1cc(O)ccc1-c1nc2cnccc2[nH]1
86 | 172 to 174 | CCOC(=O)c1c(Cc2nc[nH]n2)nc2sc3cnccc3c2c1-c1ccc(OC)c(OC)c1
87 | 292 to 293 | CCNc1nc(NS(=O)(=O)c2ccc(N)cc2)cc(N2CCC2)n1
88 | 142 | Cc1cc(Sc2cc(C)c(O)c(C)c2)cc(C)c1O
89 | 189 | COc1cc(Cc2cnc(NC(C)=Nc3ccccc3)nc2N)cc(OC)c1OC
90 | 126 to 128 | COc1ccc2c(-c3ccc(OCCN4CCOCC4)cc3)c(Cc3ccc(Cl)cc3)oc2c1
91 | 105 to 108 | CC(=O)OC1CSC(Oc2cncc(-c3ccnc(Cl)c3)c2)C(OC(C)=O)C1OC(C)=O (stereo unspecified)
92 | 55 to 80 | CCCCNCc1ccc2cc(OC)ccc2c1
93 | 136 to 137 | CCOCCCNC(=O)Nc1ccccc1CCc1cc(C(C)(C)C)c(O)c(C(C)(C)C)c1
94 | 65 to 67 | CCOC(=O)Cc1cn(-c2ncnc3ccccc23)c2ccccc12
95 | 129 | COc1ccc(-c2cc(=O)n(CC3CC3)nc2-c2ccc(OC)cc2)cc1
96 | 94 to 95 | CCCc1sc(N)c(C(=O)c2ccc(Cl)cc2)c1C
97 | 152 | Cc1nn(C)c(C)c1C(=O)Nc1cccc2c1CCC2(C)C
98 | 299 to 302 | COc1ccc(N2CCOCC2)c2sc(-c3nc4c([nH]3)CCN(CC(N)=O)CC4)nc12
99 | 220 to 222 | Cc1ccc(CSc2nc3cc4c(cc3[nH]2)C(C)(C)C(=O)C4(C)C)nc1
100 | 139 to 140 | CCCC(=O)Cc1ccc(C(=O)Nc2ccc3cc(CN4CCCC4)cnc3c2C)cc1
101 | 247 to 250 | CCOC(=O)c1[nH]c2cc3[nH]c(C)c(C(=O)OC)c3c(C)c2c1C
